According to PubChem BioAssay AID248 (DTP/NCI, 2004):
Values joined by “and” are separate entries in the source; they are usually repeats but may differ in a detail not shown here. Equal values may be shown once. Toxic doses and inconclusive results are not listed. No stated cut-off is given here; in the data, active means T/C of 150% or more; inactive means T/C below 125%.

Test system: L1210 leukemia ip in BDF1 mice, survival T/C
Assay: NCI In Vivo Anticancer Drug Screen. Data for tumor model L1210 Leukemia (intraperitoneal) in B6D2F1 (BDF1) mice
Conditions: endpoint: mean survival time, higher = longer survival
Summary of the method: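 Each compound was tested against a transplantable tumor grown in mice. The endpoint was survival, with treated animals benchmarked against vehicle controls as a simple ratio.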

[1] = dose: 100.0 mg/kg/injection, schedule: Q01DX001 (ip), vehicle: carboxymethylcellulose (CMC)
[2] = dose: 200.0 mg/kg/injection, schedule: Q01DX001 (ip), vehicle: carboxymethylcellulose (CMC)
[3] = dose: 75.0 mg/kg/injection, schedule: Q01DX001 (ip), vehicle: carboxymethylcellulose (CMC)
[4] = dose: 6.25 mg/kg/injection, schedule: Q01DX009 (ip), vehicle: saline
[5] = dose: 12.5 mg/kg/injection, schedule: Q01DX009 (ip), vehicle: saline
[6] = dose: 25.0 mg/kg/injection, schedule: Q01DX009 (ip), vehicle: saline
[7] = dose: 25.0 mg/kg/injection, schedule: Q04DX003 (ip), vehicle: saline
[8] = dose: 50.0 mg/kg/injection, schedule: Q01DX009 (ip), vehicle: saline
[9] = dose: 50.0 mg/kg/injection, schedule: Q04DX003 (ip), vehicle: saline
[10] = dose: 100.0 mg/kg/injection, schedule: Q01DX009 (ip), vehicle: Klucel (hydroxypropylcellulose) (HPC)
[11] = dose: 200.0 mg/kg/injection, schedule: Q01DX009 (ip), vehicle: Klucel (hydroxypropylcellulose) (HPC)
[12] = dose: 400.0 mg/kg/injection, schedule: Q01DX009 (ip), vehicle: Klucel (hydroxypropylcellulose) (HPC)
[13] = dose: 100.0 mg/kg/injection, schedule: Q01DX001 (ip), vehicle: saline
[14] = dose: 200.0 mg/kg/injection, schedule: Q01DX001 (ip), vehicle: saline
[15] = dose: 400.0 mg/kg/injection, schedule: Q01DX001 (ip), vehicle: saline

Measured: T/C

Nc1ncccc1C(=O)O
inactive: dose: 62.5 mg/kg/injection, schedule: Q01DX010 (ip), vehicle: saline 96 % of control and 100 % of control | [1] 101 % of control | dose: 125.0 mg/kg/injection, schedule: Q01DX010 (ip), vehicle: saline 93 % of control and 109 % of control | [2] 98 % of control | dose: 250.0 mg/kg/injection, schedule: Q01DX010 (ip), vehicle: saline 102 % of control and 90 % of control | dose: 400.0 mg/kg/injection, schedule: Q01DX001 (ip), vehicle: carboxymethylcellulose (CMC) 95 % of control | dose: 500.0 mg/kg/injection, schedule: Q01DX010 (ip), vehicle: saline 100 % of control and 90 % of control

COC1OC(CN2CC2)C2OC(C)(C)OC12 (stereo not given)
inactive: [3] 102 % of control

Cc1cc2nc3ccc(=[N+](C)C)cc-3sc2cc1N
inactive: dose: 3.12 mg/kg/injection, schedule: Q01DX009 (ip), vehicle: saline 94 % of control | [4] 100 % of control | [5] 117 % of control | [6] 101 % of control | [7] 98 % of control | [8] 100 % of control | [9] 106 % of control

CN(C)CCOCCOC(=O)N1c2ccccc2Sc2ccccc21
inactive: [4] 106 % of control | dose: 6.25 mg/kg/injection, schedule: Q04DX003 (ip), vehicle: saline 102 % of control | [5] 95 % of control | dose: 12.5 mg/kg/injection, schedule: Q04DX003 (ip), vehicle: saline 105 % of control | [6] 97 % of control | [7] 97 % of control and 98 % of control | [8] 88 % of control | [9] 107 % of control and 109 % of control | dose: 100.0 mg/kg/injection, schedule: Q01DX009 (ip), vehicle: saline 103 % of control | dose: 100.0 mg/kg/injection, schedule: Q04DX003 (ip), vehicle: saline 102 % of control and 109 % of control

Nc1nn(-c2ccccc2)c(N)c1N=Nc1ccccc1
inactive: dose: 50.0 mg/kg/injection, schedule: Q01DX009 (ip), vehicle: Klucel (hydroxypropylcellulose) (HPC) 98 % of control | [10] 98 % of control | [11] 98 % of control

O=C(O)c1ccc(OCCCCOc2ccccc2)c(Cl)c1
inactive: [10] 98 % of control | [11] 98 % of control | [12] 95 % of control

CC1(O)CCCCC1
inactive: [13] 102 % of control | [14] 104 % of control | [15] 96 % of control

O=C(c1ccccc1)C(Nc1ccccn1)c1ccccc1 (stereo not given)
inactive: [3] 96 % of control | dose: 150.0 mg/kg/injection, schedule: Q01DX001 (ip), vehicle: carboxymethylcellulose (CMC) 94 % of control | dose: 300.0 mg/kg/injection, schedule: Q01DX001 (ip), vehicle: carboxymethylcellulose (CMC) 94 % of control

CC(/C=N/N=C(\N)N(C)C)=N\N=C(/N)N(C)C
inactive: dose: 95.0 mg/kg/injection, schedule: Q01DX Z (oral), vehicle: carboxymethylcellulose (CMC) 104 % of control | dose: 190.0 mg/kg/injection, schedule: Q01DX Z (oral), vehicle: carboxymethylcellulose (CMC) 110 % of control | dose: 240.0 mg/kg/injection, schedule: Q01DX Z (ip), vehicle: carboxymethylcellulose (CMC) 96 % of control | dose: 380.0 mg/kg/injection, schedule: Q01DX Z (oral), vehicle: carboxymethylcellulose (CMC) 106 % of control | dose: 760.0 mg/kg/injection, schedule: Q01DX Z (oral), vehicle: carboxymethylcellulose (CMC) 112 % of control

COc1ccc(C=Nc2ccc(Cl)cc2)cc1
inactive: [10] 96 % of control | dose: 100.0 mg/kg/injection, schedule: Q04DX003 (ip), vehicle: Klucel (hydroxypropylcellulose) (HPC) 102 % of control | [11] 97 % of control | dose: 200.0 mg/kg/injection, schedule: Q04DX003 (ip), vehicle: Klucel (hydroxypropylcellulose) (HPC) 104 % of control | dose: 400.0 mg/kg/injection, schedule: Q04DX003 (ip), vehicle: Klucel (hydroxypropylcellulose) (HPC) 100 % of control

O=C(O)c1ccc(N=Cc2ccc(N(CCCl)CCCl)cc2)cc1O
inactive: [1] 95 % of control | [2] 101 % of control

C[N+]1(C2CCCCC2)CCCCC1
inactive: dose: 10.0 mg/kg/injection, schedule: Q01DX001 (ip), vehicle: acetone 96 % of control | dose: 10.0 mg/kg/injection, schedule: Q01DX001 (ip), vehicle: saline 98 % of control | dose: 20.0 mg/kg/injection, schedule: Q01DX001 (ip), vehicle: acetone 95 % of control | dose: 20.0 mg/kg/injection, schedule: Q01DX001 (ip), vehicle: saline 95 % of control | dose: 40.0 mg/kg/injection, schedule: Q01DX001 (ip), vehicle: acetone 102 % of control | dose: 40.0 mg/kg/injection, schedule: Q01DX001 (ip), vehicle: saline 93 % of control | dose: 75.0 mg/kg/injection, schedule: Q01DX001 (ip), vehicle: saline 101 % of control

CC1CCS(=O)(=O)CC1.[Cl][Hg][Cl]
inactive: dose: 0.31 mg/kg/injection, schedule: Q01DX009 (ip), vehicle: saline 95 % of control | dose: 0.62 mg/kg/injection, schedule: Q01DX009 (ip), vehicle: saline 86 % of control | dose: 1.25 mg/kg/injection, schedule: Q01DX009 (ip), vehicle: saline 91 % of control

CC(=O)Nc1cccc(NC(C)=O)n1
inactive: dose: 100.0 mg/kg/injection, schedule: Q04DX003 (ip), vehicle: saline with Tween-80 94 % of control | dose: 200.0 mg/kg/injection, schedule: Q04DX003 (ip), vehicle: saline with Tween-80 104 % of control | dose: 400.0 mg/kg/injection, schedule: Q04DX003 (ip), vehicle: saline with Tween-80 100 % of control

O=C(O)c1cc(I)ccc1I
inactive: [10] 93 % of control | [11] 104 % of control | [12] 103 % of control

OCSCc1c(Cl)c(Cl)c(Cl)c(Cl)c1Cl
inactive: dose: 100.0 mg/kg/injection, schedule: Q04DX002 (ip), vehicle: Klucel (hydroxypropylcellulose) (HPC) 103 % of control | dose: 200.0 mg/kg/injection, schedule: Q04DX002 (ip), vehicle: Klucel (hydroxypropylcellulose) (HPC) 103 % of control | dose: 400.0 mg/kg/injection, schedule: Q04DX002 (ip), vehicle: Klucel (hydroxypropylcellulose) (HPC) 98 % of control

Cc1ccc(C(O)(c2ccccc2)c2ccccc2C(=O)Nc2ccccc2)cc1 (stereo not given)
inactive: dose: 100.0 mg/kg/injection, schedule: Q01DX009 (ip), vehicle: saline with Tween-80 95 % of control | dose: 200.0 mg/kg/injection, schedule: Q01DX009 (ip), vehicle: saline with Tween-80 90 % of control | dose: 400.0 mg/kg/injection, schedule: Q01DX009 (ip), vehicle: saline with Tween-80 92 % of control

OC1COC(c2ccccc2)OC1C(O)C1OC(c2ccccc2)OCC1O (stereo not given)
inactive: dose: 100.0 mg/kg/injection, schedule: Q04DX002 (ip), vehicle: saline with Tween-80 89 % of control | dose: 200.0 mg/kg/injection, schedule: Q04DX002 (ip), vehicle: saline with Tween-80 105 % of control | dose: 400.0 mg/kg/injection, schedule: Q04DX002 (ip), vehicle: saline with Tween-80 102 % of control

N#CCCNC(=S)Nc1ccccc1
inactive: dose: 25.0 mg/kg/injection, schedule: Q01DX Z (ip), vehicle: methylcellulose (MC) 102 % of control | dose: 50.0 mg/kg/injection, schedule: Q01DX Z (ip), vehicle: methylcellulose (MC) 101 % of control

O=S(=O)(O)c1cc(Cl)cc(N=Nc2ccc(O)cc2O)c1O
inactive: dose: 50.0 mg/kg/injection, schedule: Q01DX001 (ip), vehicle: saline 98 % of control | [13] 98 % of control | [14] 104 % of control | [15] 98 % of control
